The text below walks through data of US20260209260A1, “VECTORIZED NHC IRIDIUM(III) COMPLEXES AND USE THEREOF IN PHOTODYNAMIC THERAPY AND/OR DIAGNOSTIC” (CENTRE NATIONAL DE LA RECHERCHE SCIENTIFIQUE, priority 2022, published 2026).

In assay [1] the test system is PC-3 prostate cancer cells (PSMA-negative). Kind of assay: Cell viability assay (MTT), dark and blue light. The settings on record: for Photosensitizing index (PI): PC3, dark vs blue light. The assay is classed as cell-based, Human. The procedure, abridged:
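Absorbance of MTT formazan at 570 nm gives viability after 72 h exposure to the complexes in 0.1% (v/v) DMSO. Irradiated wells got 10 min of 458 nm light after 8 h of dark incubation.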

The nature of assay [2]: Singlet oxygen (1O2) production, ABDA indicator, blue LED 458 nm. The settings on record: for depletion of the ABDA absorbance at 380 nm (1O2 production): 4.5 mWcm^−2, 5-45 min, PBS pH 7.4. How it is done: The detection of […] generation of iridium complexes was measured with 9,10-anthracenediyl-bis(methylene)dimalonic acid (ABDA) as an ^1O2 indicator and Ru(bpy)3Cl2 as a standard according to a modified reported method. Experiments were conducted using ABDA (50 μM) in phosphate buffered solution (PBS, pH 7.4), the respective iridium complex, i.e. (I-e), (I-g), (I-h), (I-j), (II-e), (II-g), (II-h), (II-j), (III-i), (III-j), (III-k), (III-h), (IV-i), (IV-j), (IV-k), (IV-h) and Ru(bpy)3Cl2 (5 μM) in a mixture of H2O/CH3CN (50/50) with a ratio ABDA/complex of […] and a final volume of 3 mL. ABDA oxidation was monitored by UV-vis spectrophotometry. The samples were irradiated with a blue custom-made LED plate (458 nm, 4.5 mWcm^−2). During irradiation UV-vis absorption spectra were recorded at 5, 10, 15, 20, 30 and 45 min. The ^1O2 generation was followed by monitoring the absorption spectral change at 380 nm of ABDA versus time.

Assay [3] has as its system non-tumor cells (NIH-3T3 and MC3T3). Description: Cell viability assay (MTT), summary over the non-tumor models. The settings on record: for GI50: blue light 458 nm, read-out: GI50 mean over non-tumor models, irradiated; for mean PI value in NIH-3T3 and MC3T3 non-tumoral cells: dark vs blue light 458 nm. In kind it is cell-based, Murine. Here is the method: Cells were grown in humidified incubators at 37° C. in 5% CO2. Murine MC3T3 osteoblast and NIH-3T3 fibroblast cells-used as non-tumor cell models-were cultured in a-MEM medium and DMEM medium supplemented with 10% fetal bovine serum (FBS) and 1% Penicillin/Streptomycin (P/S) antibiotics, respectively. Human T24 bladder, MGHU3 bladder, Scaber bladder, A549 lung, MCF7 breast, MiaPaCa2 pancreas cancer cells were cultured in DMEM medium supplemented with 10% FBS and 1% P/S antibiotics. […] Human Hela cervix and HepG2 liver cancer cells were cultured EMEM medium supplemented with 10% FBS and 1% P/S antibiotics.
MTT reagent (3-(4,5-dimethylthiazol-2-yl)-2,5-diphenyltetrazolium bromide) was used to determine cell death as originally described by Mosmann. Briefly, cells were seeded from 5,000 to 10,000 cells/well in 24-well plates (1 mL) depending on the cell type and allowed to attach overnight. The complexes were prepared in DMSO. The concentration of the complexes was calculated based on the elemental composition of the complexes determined by the elemental analyses. All cell viability experiments were carried out with a fixed concentration of 0.1% (v/v) DMSO. After 72 h of treatment, cells were incubated at 37° C. and 5% CO2 with 25 μL of MTT solution (5 mg/ml; Sigma-Aldrich) in 24-well plates for 3 to 4 h. After solubilization with 500 μL of DMSO, formazan was quantified spectrophotometrically with a microplate reader at 570 nm absorbance (ClarioSTAR, BMG LabTech). […] All the results were calculated from data obtained in at least three independent experiments performed in triplicate.
Two sets of experiments were conducted in parallel for each complex to be studied:
1. The cells were incubated with the different complexes (in the dark) for 72 h.
2. The cells were incubated for 8 h with the different complexes (in the dark), then irradiated for 10 min, followed by an incubation in the dark up to 72 h.

For assay [4], the system named is cancer cells (all tumor cell lines tested). Description: Cell viability assay (MTT), summary over the cancer cell lines tested. The settings on record: for PI values, mean over cancer cells: dark vs blue light 458 nm. In kind it is cell-based, Human. In outline:
(§1)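 Viability determined by MTT assay (A570) after 72 h treatment in 0.1% DMSO, with or without a 10 min irradiation at 8 h. Data from at least three independent experiments run in triplicate.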

Assay [5] deals with MCF7 breast cancer cells. Kind of assay: Cell viability assay (MTT), dark and blue light. In kind it is cell-based, Human. The settings on record: for GI50: read-out: GI50; for Photosensitizing index (PI): MCF7, dark vs blue light. In outline:
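Two parallel arms: continuous 72 h dark exposure, or 8 h preincubation followed by 10 min blue light at 458 nm (9.6 W LEDs) and further dark incubation to 72 h. Final DMSO 0.1% (v/v); MTT formazan read at 570 nm, triplicate runs repeated at least three times.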

The subject of assay [6] is T24 bladder cancer cells. Description: Cell viability assay (MTT), dark and blue light. The settings on record: for Photosensitizing index (PI): T24, dark vs blue light; for GI50: read-out: GI50. In kind it is cell-based, Human. In outline:
as §1

Assay [7] relates to A549 lung cancer cells. Kind of assay: Cell viability assay (MTT), dark and blue light. The settings on record: for GI50: read-out: GI50; for Photosensitizing index (PI): A549, dark vs blue light. In kind it is cell-based, Human. In outline:
as §1

The mark [8] stands for this setting: PC3, blue light, read-out: GI50.
Setting [9] is: in the dark, 72 h, read-out: GI50 PC-3 Dark.

Where “and” joins values, the source holds several entries; their conditions need not be identical. Equal values may be shown once. Read-outs that look alike come from different tables or passages of the source. Some results are limits rather than exact numbers.

The GI50 is the concentration that inhibits growth by half. For `F[P-](F)(F)(F)(F)F.O=C(O)CC[C@H](NC(=O)N[C@@H](CCCCNC(=O)CCn1cc[n+]2[c]1[Ir-3]13([c]4ccccc4-c4c5ccccc5cc[n+]41)([c]1ccccc1-c1c4ccccc4cc[n+]13)[n+]1ccccc1-2)C(=O)O)C(=O)O` [III-h], the GI50 was 680 nM in assay [1] (8 h in the dark, blue light 458 nm 10 min, then dark up to 72 h, read-out: GI50 PC-3 Blue); 680 nM in assay [1] (setting [8]); 21200 nM in assay [1] (PC3, dark, read-out: GI50); 21200 nM in assay [1] (setting [9]); 22800 nM in assay [3]. In addition, the “Photosensitizing index (PI)” value in assay [1] turned out to be 31.2. For the same compound, the “SI (vs MC3T3) PC-3 Blue” value in assay [1] (blue light 458 nm) is on record as 12.2. Moreover, the “SI (vs NIH-3T3) PC-3 Blue” value in assay [1] (blue light 458 nm) was 28.0. Further, in assay [2], the “depletion of the ABDA absorbance at 380 nm (1O2 production)” value was “fast depletion of the ABDA absorbance at 380 nm”. In addition, the “selectivity for cancer cells over non-tumor cells, in words” value in assay [4] is listed as “most selective effects under irradiated conditions”.
For `F[P-](F)(F)(F)(F)F.O=C(O)CC[C@H](NC(=O)N[C@@H](CCCCNC(=O)CCn1cc[n+]2[c]1[Ir-3]13([c]4c(sc5ccccc45)-c4cccc[n+]41)([c]1c(sc4ccccc14)-c1cccc[n+]13)[n+]1ccccc1-2)C(=O)O)C(=O)O` [III-j], the GI50 was found to be 1940 nM in assay [1] (setting [8]); 58200 nM in assay [1] (PC3, dark, read-out: GI50); 58200 nM in assay [1] (setting [9]). Further, the “Photosensitizing index (PI)” value in assay [1] was 30.0. In addition, in assay [1] (blue light 458 nm), the “SI (vs MC3T3) PC-3 Blue” value is reported as 6.6. Moreover, the “SI (vs MC3T3) PC-3 Dark” value in assay [1] (dark) was above 4.3. In addition, the “SI (vs NIH-3T3) PC-3 Dark” value in assay [1] (dark) is given as above 1.7. For the same compound, the “consumption of ABDA (1O2 production)” value in assay [2] (4.5 mWcm^−2) is reported as “fast complete consumption of ABDA”. Moreover, in assay [2], the “depletion of the ABDA absorbance at 380 nm (1O2 production)” value was “fast depletion of the ABDA absorbance at 380 nm”.
For `F[P-](F)(F)(F)(F)F.O=C(NCCCn1cc[n+]2[c]1[Ir-3]13([c]4ccccc4-c4sc5ccccc5[n+]41)([c]1ccccc1-c1sc4ccccc4[n+]13)[n+]1ccccc1-2)[c-]1cccc1.[Fe+2].c1cc[cH-]c1` [IV-k], the “SI (vs MC3T3)” value is 37.0 in assay [1] (PC3, blue light); 8.2 in assay [5] (MCF7, blue light); 1.8 in assay [5] (MCF7, dark); 27.0 in assay [6] (T24, blue light); 11.4 in assay [6] (T24, dark); 15.0 in assay [7] (A549, blue light). In addition, in assay [7] (A549, dark), the “SI (vs MC3T3)” value was 2.7. Moreover, the “SI (vs NIH-3T3)” value is given as 17.3 in assay [1] (PC3, dark); 18.7 in assay [5] (MCF7, blue light); 3.2 in assay [5] (MCF7, dark); 20.9 in assay [6] (T24, dark); 34.2 in assay [7] (A549, blue light). The “Photosensitizing index (PI)” value in assay [1] amounted to 7.9; in assay [5], 9.4; in assay [6] it was 4.7; in assay [7], 11.2. The GI50 was 1100 nM in assay [1] (PC3, dark, read-out: GI50); 620 nM in assay [5] (MCF7, blue light); 6800 nM and 5800 nM in assay [5] (MCF7, dark); 340 nM in assay [7] (A549, blue light); 3800 nM in assay [7] (A549, dark). Moreover, the “mean PI value in NIH-3T3 and MC3T3 non-tumoral cells” value in assay [3] amounted to 2.8 fold. In addition, the “PI values, mean over cancer cells” value in assay [4] came to 1.8 fold.
Consider `F[P-](F)(F)(F)(F)F.O=C(NCCCn1cc[n+]2[c]1[Ir-3]13([c]4ccccc4-c4c5ccccc5cc[n+]41)([c]1ccccc1-c1c4ccccc4cc[n+]13)[n+]1ccccc1-2)[c-]1cccc1.[Fe+2].c1cc[cH-]c1` [IV-h], for which the “SI (vs MC3T3)” value in assay [1] (PC3, blue light) was determined as 77.6; in assay [5] (MCF7, dark), 2.9; in assay [6] (T24, blue light), 45.0; in assay [7] (A549, dark) it was 3.4. Besides, the GI50 in assay [1] (setting [8]) amounted to 58 nM; in assay [1] (PC3, dark, read-out: GI50) it was 1300 nM; in assay [5] (MCF7, dark), 6000 nM; in assay [6] (T24, blue light) it was 100 nM; in assay [6] (T24, dark), 1300 nM; in assay [7] (A549, blue light) it was 270 nM. The GI50 in assay [3] is 4450 nM; in assay [4] (blue light 458 nm, read-out: GI50 mean over cancer cells, irradiated), 155 nM. Also, the “SI (vs NIH-3T3)” value in assay [1] (PC3, dark) is 10.2; in assay [5] (MCF7, blue light) it was 15.7; in assay [5] (MCF7, dark) it was 2.2; in assay [6] (T24, blue light), 44.0; in assay [6] (T24, dark) it was 10.2. Further, the “Photosensitizing index (PI)” value is given as 22.4 in assay [1], 21.4 in assay [5], 13.0 in assay [6] and 18.9 in assay [7]. For the same compound, the “mean PI value in NIH-3T3 and MC3T3 non-tumoral cells” value in assay [3] stood at 2.8 fold. In addition, in assay [4], the “selectivity for cancer cells over non-tumor cells, in words” value is reported as “most selective effects under irradiated conditions”. Besides, in assay [4], the “PI values, mean over cancer cells” value is recorded as 20.1 fold. For the same compound, the “increase in cell toxicity in cancer cells compared to non-tumor models” value in assay [4] (irradiated conditions) is 29 fold.
As to `F[P-](F)(F)(F)(F)F.O=C(NCCCn1cc[n+]2[c]1[Ir-3]13([c]4cccc5ccc6ccc[n+]1c6c45)([c]1cccc4ccc5ccc[n+]3c5c14)[n+]1ccccc1-2)[c-]1cccc1.[Fe+2].c1cc[cH-]c1` [IV-i], the GI50 in assay [1] (setting [8]) was 270 nM; in assay [5] (MCF7, dark) it was 5300 nM; in assay [6] (T24, blue light) it was 350 nM; in assay [7] (A549, blue light), 1000 nM; in assay [7] (A549, dark) it was 4600 nM. In addition, the “SI (vs MC3T3)” value worked out at 1.7 in assay [1] (PC3, dark); 1.9 in assay [5] (MCF7, dark); 27.2 in assay [6] (T24, blue light); 2.2 in assay [7] (A549, dark). Also, the “SI (vs NIH-3T3)” value stood at 7.0 in assay [1] (PC3, dark); 28.7 in assay [5] (MCF7, blue light); 7.8 in assay [5] (MCF7, dark); 50.4 in assay [6] (T24, blue light); 23.2 in assay [6] (T24, dark); 17.8 in assay [7] (A549, blue light). Moreover, the “Photosensitizing index (PI)” value in assay [1] is 21.9; in assay [5] it was 8.5; in assay [6], 5.1; in assay [7] it was 4.6. Also, the “mean PI value in NIH-3T3 and MC3T3 non-tumoral cells” value in assay [3] is on record as 2.8 fold. For the same compound, in assay [4], the “PI values, mean over cancer cells” value is on record as 1.6 fold.
